The text below walks through data of PMC12029898, “Cellular Metabolomics Reveals Differences in the Scope of Liver Protection Between Ammonium-Based Glycyrrhizinate and Magnesium Isoglycyrrhizinate” (Metabolites, 2025).

The structures appear in SMILES notation. Where two headings read alike, the source gives them in different places.

This data set is described as follows: Pharmacokinetics after oral gavage in rats (plasma, HPLC). Format: in vivo, Sprague Dawley rats. As to conditions: rat. From the text: Nine male Sprague Dawley rats, each weighing approximately 250 g ± 25 g, were meticulously selected as the experimental subjects (sourced from Beijing SPF Biotechnology Co., Ltd., (Beijing, China) SPF grade, licensed under SCXK (Jing) 2019-0010). The experimental protocol was approved by the Institutional Animal Care and Use Committee of Hebei Medical University and conformed to the Guide for Care and Use of Laboratory Animals (approval NO. 2023040). Prior to and throughout the experimental period, the rats were provided with unrestricted access to standard rodent chow and water. The housing facilities for these animals adhered strictly to the standards outlined by the International Association for the Evaluation and Certification of Laboratory Animal Care, ensuring optimal conditions for the animals’ wellbeing. The experimental feeding environment was maintained at a temperature of 22–24 °C, with a relative humidity of 50 ± 5%, and a 12-h light/dark cycle to mimic natural diurnal rhythms. The rats were randomly allocated into three distinct groups, with an equal distribution of three rats per group. MONO, DIAM, and MAGN were administered orally at a dose of 20 mg/kg. The amount administered was calculated as the contents of glycyrrhizinate or magnesium isoglycyrrhizinate. Each compound was dissolved in 0.5% carboxymethylcellulose sodium (CMC-Na) solution and delivered immediately to rats via gastric gavage. Blood samples of 0.2 mL were obtained at various time points post-administration (0.5, 1, 2, 4, 8, 12, 24, and 48 h) and centrifuged at 1500× g for 10 min at 4 °C, allowing for the separation of plasma, which was collected and stored at −20 °C for subsequent analysis.
Fifty microliters (50 μL) of plasma was obtained and spiked with 10 μL of dipyridamole solution as an internal standard. Subsequently, 100 μL of acetonitrile was added to precipitate the proteins, followed by vortex mixing. The mixture was centrifuged at 6000× g for 10 min at 4 °C. The resulting precipitate was discarded, and the supernatant was evaporated to dryness under a nitrogen stream at 60 °C. The residual precipitate was redissolved in 200 μL of mobile phase, vortexed for 5 min, and sonicated for 30 s. Following this, the solution was centrifuged again at 6000× g for 10 min at 4 °C. Then, 10 μL of the supernatant was injected and the chromatogram was recorded for analysis.
HPLC was employed using the Agilent 1200 series system (Agilent Technologies, Wilmington, DE, USA) with Agilent Chemstation LC B.04.03 Software. The separation was on a Venusil MP C18(2) chromatographic column (150 × 4.6 mm, 5 μm, Agela Technologies, Tianjin, China) based on the United States Pharmacopeia with adjustments performed. Isocratic elution with a mixture of 40 volumes of acetonitrile and 60 volumes of water (containing 0.5% acetic acid) was used. The flow rate and temperature were 1.0 mL/min and 40 °C, respectively. A volume of 10 μL of the sample was injected under 254 nm for analyses and with three repetitions for each test (n = 3). All the pharmacokinetic data were calculated by Drug and Statistics (DAS) 2.0 software (Mathematical Pharmacology Professional Committee of China, Shanghai, China) and presented as mean ± SD. The main parameters such as the area under the curve (AUC), the maximum plasma concentration (Cmax), the time to Cmax (Tmax), and elimination half-life (t1/2) were tabulated.

As for `CC1(C)[C@@H](O[C@H]2O[C@H](C(=O)O)[C@@H](O)[C@H](O)[C@H]2O[C@@H]2O[C@H](C(=O)O)[C@@H](O)[C@H](O)[C@H]2O)CC[C@]2(C)[C@H]3C(=O)C=C4[C@@H]5C[C@@](C)(C(=O)O)CC[C@]5(C)CC[C@@]4(C)[C@]3(C)CC[C@@H]12` [DIAM, diammonium glycyrrhizinate], where the note is “oral 20 mg/kg, n = 3”, the AUC(0-t) came out at 358.04 ± 56.36 µg·h/mL; the Cmax (commonly the maximum level reached in the sampled fluid or tissue) was found to be 18860 ± 2030 ng/mL; the Tmax – broadly, the time at which the peak concentration occurs – is 6 ± 0 h; the t1/2 amounted to 11.57 ± 1.29 h.
`CC1(C)[C@@H](O[C@H]2O[C@H](C(=O)O)[C@@H](O)[C@H](O)[C@H]2O[C@@H]2O[C@H](C(=O)O)[C@@H](O)[C@H](O)[C@H]2O)CC[C@]2(C)[C@H]3C(=O)C=C4[C@H]5C[C@@](C)(C(=O)O)CC[C@]5(C)CC[C@@]4(C)[C@]3(C)CC[C@@H]12` [MAGN, magnesium isoglycyrrhizinate]: the half-life (commonly the time needed for the level to fall by half in the phase considered) (male, Sprague Dawley, po, 20 mg/kg, n = 3) is 23.7 ± 2.44 h. Besides, the AUC(0-t) (male, Sprague Dawley, po, 20 mg/kg, n = 3, read-out: AUC0-t) worked out at 552 ± 120 µg·h/mL. The maximum concentration (Cmax) (male, Sprague Dawley, po, 20 mg/kg, n = 3, read-out: Cmax) stood at 23200 ± 4180 ng/mL. The Tmax reads like this: (male, Sprague Dawley, po, 20 mg/kg, n = 3, read-out: Tmax) 9.66 h; (oral 20 mg/kg, n = 3) 9.33 ± 2.31 h.
